According to patent US20240043386A1, “Modulators of the Cystic Fibrosis Transmembrane Conductance Regulator Protein and Methods of Use” (AbbVie Global Enterprises Ltd., priority 2021, published 2024):
Like-named read-outs stand apart in the source and are kept apart here.

Tests used:
F508delCFTR = target: T1, F508delCFTR (Homo sapiens, UniProt P13569, DEL508-508); experiment: Cell Surface Expression-Horse Radish Peroxidase (CSE-HRP) assay in CFBE41o-F508delCFTR-HRP cells; format: cell-based; conditions: for EC50: CFBE41o-F508delCFTR-HRP cells, 18-24 hours at 33° C., luminescence; for Maximum % activity (without co-corrector) / Maximum % activity (with co-corrector): normalized to on-plate positive control corrector (2 μM)
T1 construct: expressed in transfected cells; host or cells: CFBE41o- human lung-derived epithelial cell line, doxycycline-inducible expression
In short: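 Test compounds were tested alone or alongside a co-corrector (2 μM), 8-point 3-fold series from 20 or 30 μM, for 18–24 h at 33 °C on doxycycline-induced CFBE41o-F508delCFTR-HRP cells. After washing, luminol luminescence reported cell-surface HRP-tagged CFTR, normalized to the positive control (% activity). EC50 was fitted with a variable Hill slope sigmoid from triplicate plates; Z′ >0.5 required.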

F508del/F508del CFTR = target: T2, F508del/F508del CFTR (Homo sapiens, UniProt P13569, DEL508-508); experiment: Trans-Epithelial Current Clamp (TECC) assay using primary human bronchial epithelial cells; format: cell-based; conditions: for Emax (% Dual): maximum percent activity relative to positive control (co-corrector 0.15 μM + potentiator 0.45 μM = 100%), primary hBE cells F508del/F508del; for EC50: primary hBE cells homozygous F508del/F508del, test C2 corrector with co-corrector and potentiator, 18-24 hours at 37° C., equivalent CFTR current (IEQ)/AUC
T2 construct: cells isolated from CF patients with the homozygous mutation; endogenous in cells; host or cells: primary human bronchial epithelial (hBE) cells from CF patients homozygous for F508del
In short: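 Readout is the equivalent CFTR current (IEQ, from offset-corrected VT and RT) plus AUC from forskolin peak to bumetanide addition, recorded on TECC-24 at 36.5° C. Beforehand, homozygous F508del hBE cultures received correctors with co-corrector and potentiator basolaterally for 18-24 h at 37° C.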

[1] = with co-corrector (2 μM), read-out: EC50 (with co-corrector)
[2] = without co-corrector, read-out: EC50 (without co-corrector)

T2 sequence (P13569 with tags, fused parts or gaps DEL508-508): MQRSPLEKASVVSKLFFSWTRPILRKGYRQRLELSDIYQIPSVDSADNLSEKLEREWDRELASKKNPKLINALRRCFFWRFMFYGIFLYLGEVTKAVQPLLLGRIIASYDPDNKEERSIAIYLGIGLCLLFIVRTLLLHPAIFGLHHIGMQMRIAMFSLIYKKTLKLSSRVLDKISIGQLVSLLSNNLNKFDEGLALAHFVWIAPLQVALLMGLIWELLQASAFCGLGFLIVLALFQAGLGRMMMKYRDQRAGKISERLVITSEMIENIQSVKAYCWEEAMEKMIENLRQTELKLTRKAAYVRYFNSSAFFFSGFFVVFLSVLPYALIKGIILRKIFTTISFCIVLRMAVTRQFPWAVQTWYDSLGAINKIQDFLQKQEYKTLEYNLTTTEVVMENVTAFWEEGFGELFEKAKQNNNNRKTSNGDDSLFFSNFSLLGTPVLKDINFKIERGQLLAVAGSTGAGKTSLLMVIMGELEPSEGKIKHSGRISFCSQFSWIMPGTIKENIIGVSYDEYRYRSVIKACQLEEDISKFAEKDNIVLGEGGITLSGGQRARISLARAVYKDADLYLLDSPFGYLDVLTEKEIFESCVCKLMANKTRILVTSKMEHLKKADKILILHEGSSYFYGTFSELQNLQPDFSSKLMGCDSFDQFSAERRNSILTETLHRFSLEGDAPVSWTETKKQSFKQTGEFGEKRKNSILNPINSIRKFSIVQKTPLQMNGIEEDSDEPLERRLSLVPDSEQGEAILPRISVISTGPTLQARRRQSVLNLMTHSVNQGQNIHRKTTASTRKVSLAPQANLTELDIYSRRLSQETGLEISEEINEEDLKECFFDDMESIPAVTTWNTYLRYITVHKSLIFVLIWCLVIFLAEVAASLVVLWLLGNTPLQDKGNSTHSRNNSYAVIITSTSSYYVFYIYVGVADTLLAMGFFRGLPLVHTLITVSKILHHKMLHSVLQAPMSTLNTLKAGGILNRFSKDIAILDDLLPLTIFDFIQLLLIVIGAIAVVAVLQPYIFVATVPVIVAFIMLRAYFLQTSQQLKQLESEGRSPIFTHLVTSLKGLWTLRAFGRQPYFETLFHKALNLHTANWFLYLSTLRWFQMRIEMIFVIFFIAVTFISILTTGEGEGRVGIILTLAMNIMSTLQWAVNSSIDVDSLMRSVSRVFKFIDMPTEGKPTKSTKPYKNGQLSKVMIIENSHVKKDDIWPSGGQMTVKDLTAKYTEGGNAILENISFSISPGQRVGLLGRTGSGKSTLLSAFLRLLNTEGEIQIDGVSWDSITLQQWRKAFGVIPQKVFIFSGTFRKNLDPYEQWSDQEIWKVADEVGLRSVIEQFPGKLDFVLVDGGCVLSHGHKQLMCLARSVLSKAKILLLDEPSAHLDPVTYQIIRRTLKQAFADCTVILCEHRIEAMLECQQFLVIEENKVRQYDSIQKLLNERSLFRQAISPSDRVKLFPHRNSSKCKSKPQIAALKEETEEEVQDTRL
T1 sequence (P13569 with tags, fused parts or gaps DEL508-508): as above

Compound	EC50 (F508delCFTR; [1]) [nM]	EC50 (F508delCFTR; [2]) [nM]	Maximum % activity (without co-corrector) (F508delCFTR; without co-corrector) [%]	Emax (% Dual) (F508del/F508del CFTR)	EC50 (F508del/F508del CFTR) [nM]	Maximum % activity (with co-corrector) (F508delCFTR; with co-corrector (2 μM)) [%]
COc1ccc(C)cc1[C@]1(C(=O)NS(=O)(=O)c2cccc3nc(C)ccc23)C[C@@H]1c1cncc(F)c1 (single isomer, unassigned) [Example 54]	2000	2930	890	355	50.8	–
CCOc1cccc([C@@H]2C[C@]2(C(=O)NS(=O)(=O)c2cccc3nc(C)ccc23)c2cc(C)ccc2OC)n1 [Example 56, (1R,2R)-2-(6-ethoxypyridin-2-yl)-1-(2-methoxy-5-methylphenyl)-N-(2-methylquinoline-5-sulfonyl)cyclopropane-1-carboxamide]	386	890	370	290	8.5	917
CCOc1cccc([C@H]2C[C@@]2(C(=O)NS(=O)(=O)c2cccc3nc(C)ccc23)c2cc(C)ccc2OC)n1 [Example 55, (1S,2S)-2-(6-ethoxypyridin-2-yl)-1-(2-methoxy-5-methylphenyl)-N-(2-methylquinoline-5-sulfonyl)cyclopropane-1-carboxamide]	339	1000	–	341	5.86	–
COc1ccc(C)cc1[C@]1(C(=O)NS(=O)(=O)c2cccc3nc(C)ccc23)C[C@@H]1c1cc(F)cnc1OC [Example 84, (1S,2R)-2-(5-fluoro-2-methoxypyridin-3-yl)-1-(2-methoxy-5-methylphenyl)-N-(2-methylquinoline-5-sulfonyl)cyclopropane-1-carboxamide]	945	1360	–	215	17.5	–
COc1nccc([C@@H]2C[C@]2(C(=O)NS(=O)(=O)c2cccc3nc(C)ccc23)c2cc(C)ccc2OC)n1 (single isomer, unassigned) [Example 99]	2760	3980	180	126	> 1000	509
CCOc1ccc([C@H]2C[C@@]2(C(=O)NS(=O)(=O)c2cccc3nc(C)ccc23)c2cc(C)ccc2OC)cn1 [Example 58, (1S,2R)-2-(6-ethoxypyridin-3-yl)-1-(2-methoxy-5-methylphenyl)-N-(2-methylquinoline-5-sulfonyl)cyclopropane-1-carboxamide]	2120	3910	–	246	31.4	–
COc1ccc(C)cc1[C@@]1(C(=O)NS(=O)(=O)c2cccc3nc(C)ccc23)C[C@H]1c1cnc(C(C)C)cn1 (racemic) [Example 61, rac-(1r,2r)-1-(2-methoxy-5-methylphenyl)-N-(2-methylquinoline-5-sulfonyl)-2-[5-(propan-2-yl)pyrazin-2-yl]cyclopropane-1-carboxamide]	1110	2440	700	281	74.5	–
COc1ccc(C)cc1[C@@]1(C(=O)NS(=O)(=O)c2cccc3nc(C)ccc23)C[C@H]1c1cccc(C(F)(F)F)c1 (single isomer, unassigned) [Example 24]	201	583	–	286	2	–
COc1cncc([C@H]2C[C@@]2(C(=O)NS(=O)(=O)c2cccc3nc(C)ccc23)c2cc(C)ccc2OC)n1 (single isomer, unassigned) [Example 75]	635	1650	939	402	36.2	–
COCc1cccc([C@H]2C[C@@]2(C(=O)NS(=O)(=O)c2cccc3nc(C)ccc23)c2cc(C)ccc2OC)n1 [Example 90, (1S,2S)-1-(2-methoxy-5-methylphenyl)-2-[6-(methoxymethyl)pyridin-2-yl]-N-(2-methylquinoline-5-sulfonyl)cyclopropane-1-carboxamide]	900	1720	812	348	40.4	–
